Test results: PMC7071032, “In Vitro Inhibition of Hsp90 Protein by Benzothiazoloquinazolinequinones Is Enhanced in The Presence of Ascorbate. A Preliminary In Vivo Antiproliferative Study” (Molecules, 2020)

Experiments:
T24 (bladder) cells = assay: MTT reduction assay, T24 cells; assay type: cell-based; conditions: Homo sapiens, T-24, 48 h incubation, read-out: IC50 ± SEM T24
Experimental: (§1) As positive control, two well-known anticancer drugs, namely TAM and 5-FU, were also tested on these cell lines. […] Regarding 5-FU, it is a broad-spectrum chemotherapeutic drug used to treat a variety of malignancies. Particularly, it has a long history of use against bladder tumors.
(§2) Cell culture conditions were the same as reported elsewhere. Briefly, cell lines were kept in DMEM containing 10% fetal calf serum. In addition, 100 U/mL of penicillin and 100 µg/mL streptomycin from Gibco (Grand Island, NY, USA) were further added. Cell cultures were kept at 37 °C under an atmosphere of 95% air/5% CO2 and 100% humidity. Sodium L-ascorbate, menadione (vitamin K3), TAM, and 5-FU were purchased from Sigma (St. Louis, MO, USA).
(§3) The cytotoxicity of the quinones was assessed by following the reduction of MTT (3-(4,5-dimethylthiazol-2-yl)-2,5-diphenyltetrazolium bromide) to formazan blue and the capability of cancer cells to proliferate, namely a clonogenic assay.
(§4) Cells were seeded into 96-well plates at a density of 10,000 cells/well for 24 h and then incubated for 48 h with or without the quinone derivatives. […] The IC50 values were determined using the GraphPad Prism software (San Diego, CA, USA). Further incubation procedures and optical density reading of colored solutions were performed according to Benites et al..

[1] = test system: non-tumor fibroblasts AG 1523; assay: MTT reduction assay, non-tumor fibroblasts; assay type: cell-based; conditions: Homo sapiens, AG1523, 48 h incubation, read-out: IC50 ± SEM AG 1523
Experimental: as §1, §2, §3, §4

DU-145 (prostate) cells = assay: MTT reduction assay, DU-145 cells; assay type: cell-based; conditions: Homo sapiens, DU-145, 48 h, read-out: IC50 ± SEM DU-145
Experimental: as §1, §2, §3, §4

[2] = test system: panel of cancer cells (T24, DU-145, MCF-7); assay: MTT reduction assay, panel of cancer cells (means, ranges, selectivity index); assay type: cell-based, human; conditions: IC50 values of fibroblasts (AG 1523)/IC50 values of tumor cells (T24, DU-145, MCF-7)
Experimental: as §1
Such a selective index was calculated as the ratio between IC50 values of healthy cells/IC50 values in cancer cells.
as §4

MCF-7 (breast) cells = assay: MTT reduction assay, MCF-7 cells; assay type: cell-based; conditions: Homo sapiens, MCF7, 48 h incubation, read-out: IC50 ± SEM MCF-7
Experimental: as §1, §2, §3, §4

Hsp90 = assay: Immunoblot of Hsp90 protein integrity in T24 cells; assay type: cell-based, human; conditions: 5 µM quinone plus 1 mM ascorbate, 4 h
Experimental: Nevertheless, when incubation was done in the presence of 1 mM ascorbate (vitamin C) plus quinones (including menadione), a new peptide fragment of about 70 kD was detected by the antibody against Hsp90.
Figure 1 Effects of selected quinones of Hsp90 (A) and poly(ADPribose)polymerase (PARP) (B) protein integrity in T24 cells. Cancer cells were incubated for 4 h with 5 µM menadione (K3), 15, 16, 19, or 20 either in the absence or in the presence of 1 mM ascorbate (Asc). Ctl represents control untreated cells. * p < 0.05 as compared to control conditions.
Cancer cells were incubated for 4 h in the absence and in the presence of compounds. Afterward, cells were washed twice with ice-cold PBS and then resuspended in RIPA lysis buffer supplemented with 1% protease inhibitor cocktail (Sigma–Aldrich, St. Louis, MO, USA) and 3% phosphatase inhibitor cocktail (Calbiochem, Darmstadt, Germany). Treatment of samples and electrophoresis conditions were conducted as previously reported. Mouse monoclonal primary antibodies against hsp90α/β C-terminus (F8), and against β-actin (clone AC-15), were purchased from Santa Cruz Biotechnology (Santa Cruz, CA, USA) and from Abcam (Cambridge, UK), respectively. Rabbit polyclonal antibodies against PARP were purchased from BD Biosciences (San Diego, CA, USA). […]

[3] = test system: poly(ADPribose)polymerase (PARP); assay: Immunoblot of PARP protein integrity in T24 cells; assay type: cell-based, human; conditions: 5 µM, 4 h, regardless of the presence of ascorbate (1 mM)
Experimental: Figure 1 Effects of selected quinones of Hsp90 (A) and poly(ADPribose)polymerase (PARP) (B) protein integrity in T24 cells. […] Ctl represents control untreated cells. * p < 0.05 as compared to control conditions. […] This was the case regardless of the presence of ascorbate (1 mM). The obtained results make a potential role of apoptosis unlikely to be the underlying mechanism of cell impairment induced by quinones, including menadione. Indeed, PARP is a substrate of caspase-3, therefore, when an apoptosis process is triggered, it is expected that PARP protein will be cleaved yielding a second protein band also recognized by the anti-PARP antibody. Cancer cells were incubated for 4 h in the absence and in the presence of compounds. Afterward, cells were washed twice with ice-cold PBS and then resuspended in RIPA lysis buffer supplemented with 1% protease inhibitor cocktail (Sigma–Aldrich, St. Louis, MO, USA) and 3% phosphatase inhibitor cocktail (Calbiochem, Darmstadt, Germany). Treatment of samples and electrophoresis conditions were conducted as previously reported. Mouse monoclonal primary antibodies against hsp90α/β C-terminus (F8), and against β-actin (clone AC-15), were purchased from Santa Cruz Biotechnology (Santa Cruz, CA, USA) and from Abcam (Cambridge, UK), respectively. Rabbit polyclonal antibodies against PARP were purchased from BD Biosciences (San Diego, CA, USA). […]

| melting point [°C] | IC50 (T24 (bladder) cells) [µM] | IC50 (DU-145 (prostate) cells) [µM] | IC50 (MCF-7 (breast) cells) [µM] | SMILES | IC50 [1] [µM] | MSI: mean selective index [2] | Hsp90 protein cleavage (Hsp90) | PARP cleavage [3] |
| --- | --- | --- | --- | --- | --- | --- | --- | --- |
| 129 to 129.5 | 6.86 ± 0.33 | 8.46 ± 0.31 | 5.26 ± 0.22 | CCCCCC1(O)C2=C(N=C3Sc4cc(C)ccc4N31)C(=O)c1ccccc1C2=O (centres unmarked) [Compound 17] | 7.5 ± 0.69 | 1.09 |  |  |
|  |  |  |  | CC1=CC(=O)c2ccccc2C1=O [menadione, reference compound] |  |  | strong Hsp90 cleavage | neither the quinone derivatives nor menadione induced a detectable PARP cleavage |
